The values below are quoted from earlier work in patent publication EP0918795B1, “ANTIANGIOGENIC DRUG TO TREAT CANCER, ARTHRITIS AND RETINOPATHY” (Abbott Laboratories, priority 1997, dated 2004).

Data set [1] relates to cultured endothelial cells. The conditions noted are these: inhibition of the migration of cultured endothelial cells.
Data set [2] has as its system rat cornea.

No end group written: not given here.

For the sequence “SPWSSASVTAGDGVITRIR [MalII, 19-mer synthetic peptide mimicking properdin-like repeat region 1 of TSP1]”, the ED50 entry in data set [1] is recorded as “about 1 µM”. Further, in data set [2], the “neovascularization in vivo in the rat cornea” value is given as “blocked neovascularization”.
